Assay results taken from patent US9302014B2, “Cell-penetrating peptides having a central hydrophobic domain” (Medical Research Council, priority 2011, dated 2016).
Non-standard residues stand in square brackets, D forms with d. No end group written: not given here. Ahx = NCCCCCC(=O)O; βAla = NCCC(=O)O

System: dystrophin exon 23
Assay: Exon skipping in differentiated mouse H2K mdx myotubes (nested RT-PCR, densitometry)
Type: cell-based
Settings: Example 5, conjugate 0.125 to 2.0 μM, no transfection agent
Method: The exon skipping potential of Pip6-PMO conjugates was evaluated in differentiated mouse H2K mdx myotubes in the absence of any transfection agent (FIG. 1) at concentrations ranging from 0.125 μM to 1 μM. […] In the case of Pip6 sequences, the flanking arginine-rich sequences are identical (with the exception of Pip6e, which is identical except for one arginine immediately preceding the core which is displaced into the second position of the core). […] Note that we have previously shown that major changes in in vitro exon skipping activities are correlated instead with the total numbers of arginine residues [Saleh, A. F., et al., Synthesis and splice-redirecting activity of branched, arginine-rich peptide dendrimer conjugates of peptide nucleic acid oligonucleotides. Bioconjug Chem, 2010. 21(10): p. 1902-11.].
H2K mdx myotubes are derived from H2K mdx myoblasts obtained from the EDL muscle of a male H2K mdx f2 mouse. The cells are dystrophin deficient and conditionally immortal due to thermolabile simian virus 40 large tumor antigen (tsA58) expression. The myoblasts proliferate at 33° C. (10% CO2) in rich culture and differentiate into myotubes at 37° C. in media with horse serum.
H2K mdx myotubes were prepared and incubated with peptide-PNA and peptide-PMO conjugates in the absence of any transfection agent by the methods described previously (Wang, Q, Yin, H, et aL (2010) In vitro evaluation of novel antisense oligonucleotides is predictive of in vivo exon skipping activity for Duchenne muscular dystrophy) but with minor variations.
Myotubes were obtained from confluent H2K mdx cells seeded in gelatine coated 24-well plates following 2 days of serum deprivation (DMEM with 5% horse serum). The conjugates were incubated with myotubes for 4 h in 0.5 mL OptiMEM and then replaced by 1 mL of DMEM/5% horse serum media for further incubation. After 20 h myotubes were washed twice with PBS and total RNA was extracted with 0.5 mL of TRI Reagent (Sigma, UK). RNA preparations were treated with RNAse free DNAse (2U) and Proteinase K ([…]) prior to RT-PCR analysis. RT-PCR was carried out in 25 μL with 1 μg RNA template using SuperScript III One-Step RTPCR System with Platinum Taq DNA polymerase (Invitrogen) primed by forward primer 5′CAG AAT TCT GCC AAT TGC TGAG3′ [SEQ ID NO:312] and reverse primer 5′TTC TTC AGC TTG TGT CAT CC3′ [SEQ ID NO:313]. The initial cDNA synthesis was performed at 55° C. for 30 min followed by 30 cycles of 95° C. for 30 sec, 55° C. for 1 min and 68° C. for 80 sec. RT PCR product ([…]) was then used as the template for secondary PCR performed in 25 μL with 0.5 U Super TAQ polymerase (HT Biotechnologies) and primed by forward primer 5′CCCAGTCTACCACCCTATCAG AGC3′ [SEQ ID NO:314] and reverse primer 5′CCT GCC TTT AAG GCT TCC TT3′ [SEQ ID NO:315]. The cycling conditions were 95° C. for 1 min, 57° C. for 1 min and 72° C. for 80 sec for 25 cycles. Products were examined by 2% agarose gel and after scanning using Gene Tools Analysis Software (SynGene) the relative amount of exon 23 skipping was expressed as a percentage at a given concentration of conjugates averaged over duplicates of three experiments.
H2K mdx myotubes were prepared and incubated with peptide-PMO conjugates in the absence of any transfection agent at concentrations of 0.125, 0.25, 0.5 and 1.0 μM by the method described previously [Yin, H., et al., Pip5 transduction peptides direct high efficiency oligonucleotide-mediated dystrophin exon skipping in heart and phenotypic correction in mdx mice. Mol Ther, 2011. 19(7): p. 1295-303.]. The products of nested RT-PCR from total isolated RNA were examined by electrophoresis on a 2% agarose gel. Quantification of Δ23 transcript levels was calculated using densitometry. […]

Pip9d2: Pip9 series peptide (SEQ ID Nos 320-328) conjugated to PMODMD (R[Ahx]RR[βAla]RFQILY[βAla]R[Ahx]R[βAla]; also: conjugated to PMO (PMODMD))
exon skipping activity (Δ23 skipping) in mdx muscle cells: high exon skipping activity
